Results taken from ChEMBL document CHEMBL3875145, “Highly potent anti-leishmanial derivatives of hederagenin, a triperpenoid from Sapindus saponaria L” (Eur J Med Chem, 2016).

Key:
Leishmania infantum [1] = assay: Antiparasitic activity against Leishmania infantum MHOM/BR/70/BH46 promastigotes infected in dog DH82 cells at 1000 uM after 48 hrs by ELISA method; assay type: functional; conditions: MHOM/BR/70/BH46, DH82, 48 h
[2] = Selectivity index, ratio of LD50 for dog DH82 cells to IC50 for Leishmania infantum MHOM/BR/70/BH46 promastigotes infected in dog DH82 cells; assay type: toxicity, cell-based; conditions: read-out: Ratio LD50/IC50
Leishmania infantum [3] = assay: Antiparasitic activity against Leishmania infantum MHOM/BR/70/BH46 promastigotes infected in dog DH82 cells after 48 hrs by ELISA method; assay type: functional, cell-based; conditions: MHOM/BR/70/BH46, DH82, 48 h
[4] = Cytotoxicity against dog DH82 cells assessed as decrease in cell viability after 48 hrs by MTT assay; assay type: toxicity, cell-based, Canis lupus familiaris; conditions: read-out: LD50
[5] = Selectivity index, ratio of LD50 for African green monkey BGM cells to IC50 for Leishmania infantum MHOM/BR/70/BH46 promastigotes infected in dog DH82 cells; assay type: toxicity, cell-based; conditions: read-out: Ratio LD50/IC50
[6] = Cytotoxicity against human HepG2 cells assessed as decrease in cell viability after 48 hrs by MTT assay; assay type: toxicity, cell-based; conditions: read-out: LD50
[7] = Cytotoxicity against African green monkey BGM cells assessed as decrease in cell viability after 48 hrs by MTT assay; assay type: toxicity, cell-based; conditions: chlorocebus aethiops, read-out: LD50
[8] = Selectivity index, ratio of LD50 for human HepG2 cells to IC50 for Leishmania infantum MHOM/BR/70/BH46 promastigotes infected in dog DH82 cells; assay type: toxicity, cell-based; conditions: read-out: Ratio LD50/IC50

| Compound | inhibition at 1000 µM (Leishmania infantum [1]) [%] | selectivity ratio [2] | IC50 (Leishmania infantum [3]) [µM] | CC50 at 48 h [4] [µM] | selectivity ratio [5] | CC50 at 48 h [6] [µM] | CC50 at 48 h [7] [µM] | selectivity ratio [8] |
| --- | --- | --- | --- | --- | --- | --- | --- | --- |
| CC1(C)CC[C@]2(C(=O)OCc3c(F)cccc3F)CC[C@]3(C)C(=CC[C@@H]4[C@@]5(C)CC[C@H](O)[C@@](C)(CO)[C@@H]5CC[C@]43C)[C@@H]2C1 | 25.2 |  |  |  |  |  |  |  |
| CC1(C)CC[C@]2(C(=O)OCc3c(Cl)cccc3Cl)CC[C@]3(C)C(=CC[C@@H]4[C@@]5(C)CC[C@H](O)[C@@](C)(CO)[C@@H]5CC[C@]43C)[C@@H]2C1 | 53 | 0.6 | 307 | 202 |  |  |  |  |
| Cc1cccc(COC(=O)[C@]23CCC(C)(C)C[C@H]2C2=CC[C@@H]4[C@@]5(C)CC[C@H](O)[C@@](C)(CO)[C@@H]5CC[C@@]4(C)[C@]2(C)CC3)c1 | 66 |  |  |  |  |  |  |  |
| CC1(C)CC[C@]2(C(=O)OCc3cccc([N+](=O)[O-])c3)CC[C@]3(C)C(=CC[C@@H]4[C@@]5(C)CC[C@H](O)[C@@](C)(CO)[C@@H]5CC[C@]43C)[C@@H]2C1 | 60.5 | 6.4 | 9.7 | 63 | 32 | 70 | 314 | 5.2 |
| COc1cc(COC(=O)[C@]23CCC(C)(C)C[C@H]2C2=CC[C@@H]4[C@@]5(C)CC[C@H](O)[C@@](C)(CO)[C@@H]5CC[C@@]4(C)[C@]2(C)CC3)cc(OC)c1 | 89 |  | 110 |  |  |  |  |  |
| Cc1ccc(COC(=O)[C@]23CCC(C)(C)C[C@H]2C2=CC[C@@H]4[C@@]5(C)CC[C@H](O)[C@@](C)(CO)[C@@H]5CC[C@@]4(C)[C@]2(C)CC3)cc1 | 44 |  |  |  |  |  |  |  |
| CC1(C)CC[C@]2(C(=O)OCc3ccc(F)cc3)CC[C@]3(C)C(=CC[C@@H]4[C@@]5(C)CC[C@H](O)[C@@](C)(CO)[C@@H]5CC[C@]43C)[C@@H]2C1 | 57 |  |  |  |  |  |  |  |
| CC1(C)CC[C@]2(C(=O)OCc3ccc(Br)cc3)CC[C@]3(C)C(=CC[C@@H]4[C@@]5(C)CC[C@H](O)[C@@](C)(CO)[C@@H]5CC[C@]43C)[C@@H]2C1 | 64.5 | 6.9 | 12 | 83 | 10 | 260 | 116 | 21.6 |
| CC1(C)CC[C@]2(C(=O)NCc3ccccc3)CC[C@]3(C)C(=CC[C@@H]4[C@@]5(C)CC[C@H](O)[C@@](C)(CO)[C@@H]5CC[C@]43C)[C@@H]2C1 | 8.2 |  |  |  |  |  |  |  |
| C#CCNC(=O)[C@]12CCC(C)(C)C[C@H]1C1=CC[C@@H]3[C@@]4(C)CC[C@H](O)[C@@](C)(CO)[C@@H]4CC[C@@]3(C)[C@]1(C)CC2 | 15 |  |  |  |  |  |  |  |
| CC1(C)CC[C@]2(C(=O)OCc3cn(Cc4cccc(Br)c4)nn3)CC[C@]3(C)C(=CC[C@@H]4[C@@]5(C)CC[C@H](O)[C@@](C)(CO)[C@@H]5CC[C@]43C)[C@@H]2C1 | 70.5 | 0.5 | 38 | 21 | 2 | 19 | 78 | 0.5 |
| CC1(C)CC[C@]2(C(=O)OCc3cn(Cc4ccc(F)cc4F)nn3)CC[C@]3(C)C(=CC[C@@H]4[C@@]5(C)CC[C@H](O)[C@@](C)(CO)[C@@H]5CC[C@]43C)[C@@H]2C1 | 87.7 | 6 | 11 | 66 | 4.9 | > 1000 | 158 | > 31.2 |
| CC1(C)CC[C@]2(C(=O)NCc3cn(Cc4ccc(Cl)cc4)nn3)CC[C@]3(C)C(=CC[C@@H]4[C@@]5(C)CC[C@H](O)[C@@](C)(CO)[C@@H]5CC[C@]43C)[C@@H]2C1 | 85.4 | 2.6 | 6 | 16 | 8.3 | 2.5 | 50 | 0.4 |
| CC1(C)CC[C@]2(C(=O)NCc3cn(Cc4c(Cl)cccc4Cl)nn3)CC[C@]3(C)C(=CC[C@@H]4[C@@]5(C)CC[C@H](O)[C@@](C)(CO)[C@@H]5CC[C@]43C)[C@@H]2C1 | 41.7 |  |  |  |  |  |  |  |
| CC1(C)CC[C@]2(C(=O)OCc3cn(Cc4ccccc4F)nn3)CC[C@]3(C)C(=CC[C@@H]4[C@@]5(C)CC[C@H](O)[C@@](C)(CO)[C@@H]5CC[C@]43C)[C@@H]2C1 | 48.3 |  |  |  |  |  |  |  |
| CC1(C)CC[C@]2(C(=O)NCc3cn(Cc4ccc(F)cc4F)nn3)CC[C@]3(C)C(=CC[C@@H]4[C@@]5(C)CC[C@H](O)[C@@](C)(CO)[C@@H]5CC[C@]43C)[C@@H]2C1 | 41.8 |  |  |  |  |  |  |  |
| CC1(C)CC[C@]2(C(=O)NCc3cn(Cc4ccccc4[N+](=O)[O-])nn3)CC[C@]3(C)C(=CC[C@@H]4[C@@]5(C)CC[C@H](O)[C@@](C)(CO)[C@@H]5CC[C@]43C)[C@@H]2C1 | 93 | 22.5 | 2 | 45 | 55.5 | > 1000 | 111 | > 500 |
| CC1(C)CC[C@]2(C(=O)NCc3cn(Cc4ccccc4Cl)nn3)CC[C@]3(C)C(=CC[C@@H]4[C@@]5(C)CC[C@H](O)[C@@](C)(CO)[C@@H]5CC[C@]43C)[C@@H]2C1 | 0 |  |  |  |  |  |  |  |
| CC1(C)CC[C@]2(C(=O)OCc3cn(Cc4ccccc4Br)nn3)CC[C@]3(C)C(=CC[C@@H]4[C@@]5(C)CC[C@H](O)[C@@](C)(CO)[C@@H]5CC[C@]43C)[C@@H]2C1 | 34.6 |  |  |  |  |  |  |  |
| CC1(C)CC[C@]2(C(=O)NCc3cn(Cc4c(F)cccc4F)nn3)CC[C@]3(C)C(=CC[C@@H]4[C@@]5(C)CC[C@H](O)[C@@](C)(CO)[C@@H]5CC[C@]43C)[C@@H]2C1 | 45 |  |  |  |  |  |  |  |
| CC1(C)CC[C@]2(C(=O)OCc3cn(Cc4cccc(Cl)c4)nn3)CC[C@]3(C)C(=CC[C@@H]4[C@@]5(C)CC[C@H](O)[C@@](C)(CO)[C@@H]5CC[C@]43C)[C@@H]2C1 | 51.3 |  |  |  |  |  |  |  |
| CC1(C)CC[C@]2(C(=O)NCc3cn(Cc4ccccc4Br)nn3)CC[C@]3(C)C(=CC[C@@H]4[C@@]5(C)CC[C@H](O)[C@@](C)(CO)[C@@H]5CC[C@]43C)[C@@H]2C1 | 4.2 |  |  |  |  |  |  |  |
| CC1(C)CC[C@]2(C(=O)OCc3cn(Cc4ccc(F)cc4)nn3)CC[C@]3(C)C(=CC[C@@H]4[C@@]5(C)CC[C@H](O)[C@@](C)(CO)[C@@H]5CC[C@]43C)[C@@H]2C1 | 33.3 |  |  |  |  |  |  |  |
| CC1(C)CC[C@]2(C(=O)OCc3cn(Cc4ccccc4[N+](=O)[O-])nn3)CC[C@]3(C)C(=CC[C@@H]4[C@@]5(C)CC[C@H](O)[C@@](C)(CO)[C@@H]5CC[C@]43C)[C@@H]2C1 | 51 | 6.6 | 32 | 212 | 1.3 | 57 | 15 | 5.1 |
| COC(=O)CNC(=O)[C@]12CCC(C)(C)C[C@H]1C1=CC[C@@H]3[C@@]4(C)CC[C@H](O)[C@@](C)(CO)[C@@H]4CC[C@@]3(C)[C@]1(C)CC2 | 79.5 | 1.8 | 18 | 32.5 | 1 | 60.6 | 20 | 3.5 |
| CC1(C)CC[C@]2(C(=O)O)CC[C@]3(C)C(=CC[C@@H]4[C@@]5(C)CC[C@H](O)[C@@](C)(CO)[C@@H]5CC[C@]43C)[C@@H]2C1 [HEDERAGENIN] | 55.5 | 10 | 61.6 | < 1000 | 0.9 | < 1000 | 57 | 16.2 |
